For data set [1], the system named is platelets. The data set can be described thus: Flow cytometry assay of platelet degranulation (P-Selectin surface expression in PRP). It is filed as cell-based, human. Particulars: PRP pre-incubated with compound (100 µM), then CRP-XL (1 µg/mL); % ±SEM normalized to CRP-XL-treated vehicle PRP. The method, then: Platelet Degranulation Studies of Derivatives. Concurrent with the β-Arrestin recruitment potency optimization, the compounds were also tested and developed according to their functional activity. To determine the ability of a compound to modulate platelets, P-Selectin surface expression was measured. P-Selectin is a surface protein involved in cell adhesion mechanisms and can be found on activated platelets. After induction of platelet aggregation in platelet-rich plasma (PRP), treatment with the respective compound should therefore lead to a significant reduction in P-Selectin expression. […]. […]. Similarly, platelet degranulation potency was highly sensitive toward "linker"-changes (Structure C, Table 1). A distinct trend could not be registered. […]. Flow Cytometry Assay. The inhibition of platelet degranulation was determined via flow cytometry experiments. Platelets were treated with collagen-related peptide (CRP-XL, CambCol Laboratories, Cambridge, UK) and the platelets' activation state was determined (Geue, S.; Aurbach, K.; Manke, M.-C.; Manukjan, G.; Münzer, P.; Stegner, D.; Brähler, C.; Walker-Allgaier, B.; Märklin, M.; Borst, C. E.; Quintanilla-Fend, L.; Rath, D.; Geisler, T.; Salih, H. R.; Seizer, P.; Lang, F.; Nieswandt, B.; Gawaz, M.; Schulze, H.; Pleines, I.; Borst, O. Pivotal role of pdk1 in megakaryocyte cytoskeletal dynamics and polarization during platelet biogenesis. Blood 2019, 134, 1847-1858; and Malehmir, M.; Pfister, D.; Gallage, S.; Szydlowska, M.; Inverso, D.; Kotsiliti, E.; Leone, V.; Peiseler, M.; Surewaard, B. G. J.; Rath, D.; Ali, A.; Wolf, M. J.; Drescher, H.; Healy, M. E.; Dauch, D.; Kroy, D.; Krenkel, O.; Kohlhepp, M.; Engleitner, T.; Olkus, A.; Sijmonsma, T.; Volz, J.; Deppermann, C.; Stegner, D.; Helbling, P.; Nombela-Arrieta, C.; Rafiei, A.; Hinterleitner, M.; Rail, M.; Baku, F.; Borst, O.; Wilson, C. L.; Leslie, J.; O'Connor, T.; Wes-ton, C. J.; Chauhan, A.; Adams, D. H.; Sheriff, L.; Teijeiro, A.; Prinz, M.; Bogeska, R.; An-stee, N.; Bongers, M. N.; Notohamiprodjo, M.; Geisler, T.; Withers, D. J.; Ware, J.; Mann, D. A.; Augustin, H. G.; Vegiopoulos, A.; Milsom, M. D.; Rose, A. J.; Lalor, P. F.; Llovet, J. M.; Pinyol, R.; Tacke, F.; Rad, R.; Matter, M.; Djouder, N.; Kubes, P.; Knolle, P. A.; Unger, K.; Zender, L.; Nieswandt, B.; Gawaz, M.; Weber, A.; Heikenwalder, M. Platelet gpibα is a mediator and potential interventional target for nash and subsequent liver cancer. Nat. Med. 2019, 25, 641-655). Briefly, PRP was isolated from peripheral human blood collected in citrate-phosphate-dextrose solution with adenine (CPDA) and diluted with phosphate-buffered saline (PBS) (Sigma Aldrich Co., Ltd., St. Luis, Missouri, USA) supplemented with CaCl2 and MgCl2. PRP (106 platelets /sample) was preincubated with the respective compound (100 µM) for 15 min. Samples were treated with 1 µg/ml CRP-XL (CambCol Laboratories, Cambridge, UK) for 30 min at room temperature in the presence of the respective fluorochrome-conjugated antibody against P-Selectin (CD62P-FITC; Beckman Coulter, Brea, CA, USA). Subsequently, samples were fixed in 0.5% paraformaldehyde and analyzed on a FACS-Calibur flow cytometer (FACS-Caliber flow cytometer, Becton-Dickinson, East Rutherford, NJ, USA). Mean fluorescence intensity (MFI) was used as a quantitative measurement of platelet surface expression.
A general note: In flow cytometry, cells or beads pass a laser one at a time.

Another data set in a line: Kinetic solubility assay. The following applies: mixture 1 vol.% DMSO and 99 vol.% PBS buffer. It is filed as physicochemical. The method, then:
Solubility Assay. A 100 mL flask with phosphate-buffered saline was prepared from NaCl, KCI, Na2HPO4, KH2PO4, and distilled water. The buffer was adjusted to pH 7.4 with HCl. Afterwards, 10mM stock solutions of compounds in DMSO were prepared. 10 µL compound stock solution was added to 990 µL PBS in Eppendorf tubes. As a reference, 10 µL compound stock solution was added to 990 µL HPLC-grade MeOH in Eppendorf tubes. All tubes were centrifuged (16000 relative centrifugal force, 4 °C, 20 min). Subsequently, 600 µL supernatant was extracted carefully and filled into HPLC vials. […] Compounds solubility was calculated by AUC of compound in PBS divided by AUC of reference solution multiplied by concentration of the compound in solution.

Another data set deals with T1, human ACKR3 (Homo sapiens, UniProt P25106).
T1 construct: expressed in transfected cells; host or cells: HEK293T
T1 sequence (P25106 whole entry): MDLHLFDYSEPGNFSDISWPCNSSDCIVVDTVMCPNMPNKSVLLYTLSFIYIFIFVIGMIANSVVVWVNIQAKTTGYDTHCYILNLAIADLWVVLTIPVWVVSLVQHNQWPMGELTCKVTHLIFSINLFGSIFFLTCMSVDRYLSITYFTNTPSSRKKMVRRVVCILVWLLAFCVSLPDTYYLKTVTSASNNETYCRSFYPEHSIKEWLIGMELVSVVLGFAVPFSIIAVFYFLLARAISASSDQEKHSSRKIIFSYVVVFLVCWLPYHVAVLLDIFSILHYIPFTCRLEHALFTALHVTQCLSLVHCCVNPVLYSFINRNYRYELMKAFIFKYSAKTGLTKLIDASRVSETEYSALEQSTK
T1 sequence (P49407 whole entry partner): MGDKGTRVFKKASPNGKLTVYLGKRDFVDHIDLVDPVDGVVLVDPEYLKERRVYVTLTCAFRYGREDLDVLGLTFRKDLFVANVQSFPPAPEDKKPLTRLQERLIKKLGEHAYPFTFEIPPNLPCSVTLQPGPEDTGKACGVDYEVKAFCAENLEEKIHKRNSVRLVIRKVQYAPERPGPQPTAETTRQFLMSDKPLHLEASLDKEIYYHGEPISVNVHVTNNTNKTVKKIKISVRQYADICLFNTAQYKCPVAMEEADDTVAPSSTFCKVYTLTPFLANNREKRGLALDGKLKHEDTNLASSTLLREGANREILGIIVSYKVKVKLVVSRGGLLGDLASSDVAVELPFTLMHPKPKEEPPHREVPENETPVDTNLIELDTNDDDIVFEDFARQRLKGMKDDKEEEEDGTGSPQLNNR
The data set can be described thus: ACKR3 β-Arrestin recruitment assay (NanoLuc complementation, NanoBiT) in HEK293T cells. The following applies: for Efficacy (Emax) vs CXCL12: efficacy of CXCL12 at 300 nM set as 100%, average of three independent experiments. It is filed as cell-based. On the procedure: ACKR3 β-Arrestin Recruitment Assay. […] T.; Encell, L. P.; Wood, K. V. Nanoluc complementation reporter optimized for accurate measurement of protein interactions in cells. […] B.; Reynders, N.; Vanderplasschen, A.; Ollert, M.; Bouvier, M.; Szpakowska, M.; Chevigné, A. Proadrenomedullin n-terminal 20 peptides (pamps) are agonists of the chemokine scavenger receptor ACKR3/CXCR7. […] The prepared cells were then treated with compounds at concentrations ranging from 0.3 nM to 100 µM. Induction of β-Arrestin recruitment to receptors was evaluated by measuring bioluminescence with a Mithras LB940 luminometer (Berthold Technologies).
All curves were fitted to data points generated from the mean of at least three independent experiments. Results with values of p < 0.05 were considered statistically significant.
(In general: Recruitment of arrestin is a read-out of receptor activation apart from second messengers.)

Data set [2] relates to platelets. The data set can be described thus: Light transmission platelet aggregation experiments. It is filed as cell-based. Particulars: preincubation with 100 µM ACKR3 agonist, activation with 2.5 µM ADP; compared to the control. On the procedure: Platelet aggregation studies. To further evaluate the compounds inhibitory potential of platelet aggregation, aggregation experiments were conducted.
Aggregation experiments. For the light transmission aggregation experiments, citrate anticoagulated blood from healthy donors was used. To obtain platelet-rich plasma, whole blood was centrifuged at 210 × g for 20 min at room temperature. 1 × 10^8 platelets were preincubated with 100 µM ACKR3 agonist for 15 min at 37°C. Subsequently, platelets were activated with 2.5 µM ADP and aggregation was analyzed for 5 min at 1,000 rpm and 37°C using a light transmission aggregometer (Aggregometer 490-X; Chrono-Log Corp., Havertown, Pennsylvania, United States). Maximum platelet aggregation and the area under the curve were quantified using Aggrolink8 software (Chrono-Log Corp., Havertown, Pennsylvania, United States).

[3] abbreviates: ACKR3, HEK293T cells, average value of three independent experiments.

What is called EC50 is the concentration giving half of the maximal effect.

Molecules are shown by their SMILES. “And” between values parts separate entries of the source, which are not always exact repeats. Equal entries are not always repeated.

Turning to `CCCN(CCCNC(=O)c1ccc(-c2ccccc2)s1)Cc1ccccc1` [Compound 26, N-(3-(benzyl(propyl)amino)propyl)-5-phenylthiophene-2-carboxamide], the P-Selectin expression reduction in the data set with platelets [1] was determined as 76±7%. The “Solubility (in words)” value in “Kinetic solubility assay” is listed as “good solubility”.
For `O=C(NCCCN(CCCO)Cc1ccccc1)c1ccc(-c2ccccc2)s1` [Compound 28, N-(3-(benzyl(3-hydroxypropyl)amino)propyl)-5-phenylthiophene-2-carboxamide], the midpoint of the response on human ACKR3 (setting [3]), the EC50, lay at 0.413 µM. Besides, the P-Selectin expression reduction in the data set on platelets [1] is 85±4%.
For `O=C(NCCCN(CCc1ccccc1)Cc1ccccc1)c1ccc(-c2ccccc2)s1` [Compound 29, N-(3-(benzyl(phenethyl)amino)propyl)-5-phenylthiophene-2-carboxamide], in that order: 0.459 µM and 2±8%.
At human ACKR3 (setting [3]), `O=C(NCCCN(CCCc1ccccc1)Cc1ccccc1)c1ccc(-c2ccccc2)s1` [Compound 30, N-(3-(benzyl(3-phenylpropyl)amino)propyl)-5-phenylthiophene-2-carboxamide] displayed an EC50 of 1.06 µM. Further, the P-Selectin expression reduction in the data set with platelets [1] turned out to be 1±5%. The “Solubility (in words)” value in the data set “Kinetic solubility assay” is “good solubility”.
Take `CCN(CCCNC(=O)c1ccc(-c2cccc(F)c2)s1)Cc1ccccc1` [Compound 31, N-(3-(benzyl(ethyl)amino)propyl)-5-(3-fluorophenyl)thiophene-2-carboxamide]: in the data set on platelets [1], the P-Selectin expression reduction turned out to be 95±1%.
Still for that read-out and setting: next, `CCN(CCCNC(=O)c1ccc(-c2cccc(F)c2)s1)Cc1ccc(F)cc1` [Compound 32, N-(3-(ethyl(4-fluorobenzyl)amino)propyl)-5-(3-fluorophenyl)thiophene-2-carboxamide]: 96±1%.
Consider `CC(C)(C)OC(=O)NCCCNC(=O)c1ccc(-c2ccccc2)s1` [Compound 33, tert-butyl (3-(5-phenylthiophene-2-carboxamido)propyl)carbamate], for which, on human ACKR3 (setting [3]), the “β-Arrestin recruitment EC50” value was “no activity”. In the data set on platelets [1], the P-Selectin expression reduction is on record as 0±4%.
As for `O=C(NCCCNCc1ccccc1)c1ccc(-c2ccccc2)s1` [Compound 34, N-(3-(benzylamino)propyl)-5-phenylthiophene-2-carboxamide], the P-Selectin expression reduction in the data set on platelets [1] was 95±1%.
On the same count and under the same terms, next, `O=C(NCCCN1CCc2ccccc2C1)c1ccc(-c2ccccc2)s1` [Compound 35, N-(3-(3,4-dihydroisoquinolin-2(1H)-yl)propyl)-5-phenylthiophene-2-carboxamide]: 27±9%.
As to `O=C(NCC1CCCN(Cc2ccccc2)C1)c1ccc(-c2ccccc2)s1` (stereo not shown) [Compound 39, N-((1-benzylpiperidin-3-yl)methyl)-5-phenylthiophene-2-carboxamide], the EC50 on human ACKR3 (setting [3]) is 1.22 µM. Also, the P-Selectin expression reduction in the data set with platelets [1] worked out at 42±9%.
`O=C(c1ccc(-c2ccccc2)s1)N1CCCN(Cc2ccccc2)CC1` [Compound 40, (4-benzyl-1,4-diazepan-1-yl)(5-phenylthiophen-2-yl)methanone] returned an EC50 at human ACKR3 (setting [3]) of 1.2 µM. For the same molecule, on human ACKR3, the “Efficacy (Emax) vs CXCL12” value turned out to be 32%. Further, the P-Selectin expression reduction in the data set with platelets [1] stood at 76%.
Regarding `O=C(NCc1cccc([N+](=O)[O-])c1)c1ccc(-c2ccccc2)s1` [Compound 42, N-(3-nitrobenzyl)-5-phenylthiophene-2-carboxamide], the P-Selectin expression reduction in the data set with platelets [1] is 17±3%.
`CC(C)(C)OC(=O)N1CCCN(C(=O)c2csc(-c3ccccc3)n2)CC1` [Compound 45, tert-butyl 4-(2-phenylthiazole-4-carbonyl)-1,4-diazepane-1-carboxylate] came in with an EC50 on human ACKR3 (setting [3]) of 5 µM. The “Efficacy (Emax) vs CXCL12” value at human ACKR3 was 29%. The P-Selectin expression reduction in the data set on platelets [1] is on record as 93%.
For `CC(C)(C)OC(=O)N1CCN(CCCNC(=O)c2csc(-c3ccccc3)n2)CC1` [Compound 46, tert-butyl 4-(3-(2-phenylthiazole-4-carboxamido)propyl)piperazine-1-carboxylate], in that order: 2.7 µM, 65% and 86%.
For `CC(C)(C)OC(=O)N1CCN(CCCNCc2csc(-c3ccccc3)n2)CC1` [Compound 47, tert-butyl 4-(3-(((2-phenylthiazol-4-yl)methyl)amino)propyl)piperazine-1-carboxylate], in that order: 2.4 µM, 89% and 100%.
For `CC(C)(C)OC(=O)N1CCN(CCNC(=O)c2cc3ccccc3s2)CC1` [Compound 49, tert-butyl 4-(2-(benzo[b]thiophene-2-carboxamido)ethyl)piperazine-1-carboxylate], in that order: 4.55 µM, 25% and 70%.
As for `COc1cc(C(=O)N(CCC2CCCN2C)C/C(C)=C/c2ccccc2F)cc(OC)c1OC` (stereo not shown) [VUF11207, reference compound], the EC50 at human ACKR3 (setting [3]) is 0.0436 µM. For the same molecule, on human ACKR3, the “Efficacy (Emax) vs CXCL12” value was found to be 95%. In addition, in the data set on platelets [1], the P-Selectin expression reduction was 65% and 65±6%. In addition, in the data set with platelets [2], the “platelet aggregation (in words)” value was “reduction of platelet aggregation”.
